Where two headings read alike, the source gives them in different places. Bounds are passed on as bounds.

Consider 22 compounds from patent US20060116390A1, “Hepatitis c virus inhibitors” (priority 2003, published 2006).

In the assay the test system is HCV proteins in Rep5.1 cells (replicon cell line). Description: Inhibitory activity of HCV: cell-based ELISA in replicon cell line Rep5.1 (decrease of HCV proteins). Also on record: species or system hepatitis C virus. Conditions: Rep5.1 cells, 72 hours with drug. The procedure, abridged:
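HCV protein loss was quantified by ELISA on methanol/acetone-fixed cells 72 h after drug addition, probing with selected HCV-positive human plasma, and IC50 was defined as 50% reduction relative to untreated wells. The cells were Rep5.1 replicon cells cultured in DMEM-10 with 500 μg/ml G418, plated at 5000 per well and dosed with serial dilutions after 4 h attachment.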
Background: ELISA stands for enzyme-linked immunosorbent assay.

The mark [1] stands for this setting: Hepatitis C virus, 72 h, concentration at which 50% of HCV proteins was decreased, Table 2, read-out: IC50.
[2] abbreviates: Hepatitis C virus, 72 h, decrease of HCV proteins measured by HCV antibody, Table 1, read-out: Level (IC50 values classified).

Consider `CC1=C(C(=O)OCC=Cc2ccco2)CNC(=S)N1` [Compound 251, 6-methyl-2-thioxo-1,2,3,4-tetrahydro-pyrimidine-5-carboxylic acid 3-furan-2-allyl ester], for which, for the setting “concentration at which 50% of HCV proteins was decreased, Table 2, read-out: IC50”, the 50% inhibitory concentration (IC50) stood at 1600 nM.

As for `CC1=C(C(=O)OCCc2ccsc2)C(CF)NC(=S)N1` (stereo not shown) [Compound 252, 4-fluoromethyl-6-methyl-2-thioxo-1,2,3,4-tetrahydro-pyrimidine-5-carboxylic acid 2-thiophen-3-yl-ethyl ester], the IC50 runs as follows: under setting [1], 1400 nM; under setting [2], 1000 to 10000 nM. In the same order, the values of `CC1=C(C(=O)OCc2ccsc2)C(CF)NC(=S)N1` (stereo not shown) [Compound 253, 4-fluoromethyl-6-methyl-2-thioxo-1,2,3,4-tetrahydro-pyrimidine-5-carboxylic acid thiophen-3-ylmethyl ester] are 13000 nM and 10000 to 20000 nM.

For the compound `CC1=C(C(=O)OCCc2ccoc2)CNC(=S)N1` [Compound 254, 6-methyl-2-thioxo-1,2,3,4-tetrahydro-pyrimidine-5-carboxylic acid 2-furan-3-yl-ethyl ester], the IC50 reads like this: under setting [1], 3000 nM; under setting [2], 1000 to 10000 nM.

As to `CC1=C(C(=O)OC(C)Cc2ccsc2)CNC(=S)N1` (stereo not shown) [Compound 255, 6-methyl-2-thioxo-1,2,3,4-tetrahydro-pyrimidine-5-carboxylic acid 2-thiophen-3-yl-1-methyl-ethyl ester], the IC50 runs as follows: under setting [1], 2000 nM; under setting [2], 1000 to 10000 nM.

For the compound `CC1=C(C(=O)OCc2ccc3nc(C)oc3c2)CNC(=S)N1` [Compound 256, 6-methyl-2-thioxo-1,2,3,4-tetrahydro-pyrimidine-5-carboxylic acid 2-methyl-benzoxazol-6-ylmethyl ester], the half-maximal inhibitory concentration (IC50) under setting [1] came out at 3400 nM and the IC50 under setting [2] lay within 1000 to 10000 nM. In the case of `CC1=C(C(=O)OCCc2sccc2C)CNC(=S)N1` [Compound 257, 6-methyl-2-thioxo-1,2,3,4-tetrahydro-pyrimidine-5-carboxylic acid 2-(3-methyl-thiophen-2-yl)-ethyl ester], the IC50 by setting is: under setting [1], < 400 nM; under setting [2], < 1000 nM. The matching figures for `CC1=C(C(=O)OCCc2ccc(C)s2)CNC(=S)N1` [Compound 258, 6-methyl-2-thioxo-1,2,3,4-tetrahydro-pyrimidine-5-carboxylic acid 2-(5-methyl-thiophen-2-yl)-ethyl ester]: < 400 nM and < 1000 nM.

In the case of `CC1=C(C(=O)OCCc2ccc(F)cc2)CNC(=S)N1` [Compound 259, 6-methyl-2-thioxo-1,2,3,4-tetrahydro-pyrimidine-5-carboxylic acid 2-(4-fluoro-phenyl)-ethyl ester], the half-inhibitory concentration (IC50) by setting is: under setting [1], < 400 nM; under setting [2], < 1000 nM.

Take `O=C(OCCc1ccsc1)C1=CNC(=S)NC1` [Compound 261, 2-thioxo-1,2,3,4-tetrahydro-pyrimidine-5-carboxylic acid 2-thiophen-3-yl-ethyl ester]: the IC50 by setting is: under setting [1], 800 nM; under setting [2], < 1000 nM. In the same order, the values of `CCOc1ccccc1COC(=O)C1=C(C)NC(=S)NC1CF` (stereo not shown) [Compound 263, 4-fluoromethyl-6-methyl-2-thioxo-1,2,3,4-tetrahydro-pyrimidine-5-carboxylic acid 2-ethoxy-benzyl ester] are 1700 nM and < 1000 nM. The matching figures for `CCc1ccc(COC(=O)C2=C(C)NC(=S)NC2)o1` [Compound 264, 6-methyl-2-thioxo-1,2,3,4-tetrahydro-pyrimidine-5-carboxylic acid 5-ethyl-furan-2-ylmethyl ester]: 13000 nM and 10000 to 20000 nM. In the same order, the values of `CC1=C(C(=O)OCCc2nc3ccccc3o2)CNC(=S)N1` [Compound 265, 6-methyl-2-thioxo-1,2,3,4-tetrahydro-pyrimidine-5-carboxylic acid 2-benzoxazol-2-yl-ethyl ester] are 6000 nM and 1000 to 10000 nM. Take `CCc1ccc(CCOC(=O)C2=C(C)NC(=S)NC2)s1` [Compound 266, 6-methyl-2-thioxo-1,2,3,4-tetrahydro-pyrimidine-5-carboxylic acid 2-(5-ethyl-thiophen-2-yl)-ethyl ester]: the IC50 by setting is: under setting [1], 600 nM; under setting [2], < 1000 nM.

As to `CC1=C(C(=O)OCCc2cc3c(C)nn(C)c3s2)CNC(=S)N1` [Compound 267, 6-methyl-2-thioxo-1,2,3,4-tetrahydro-pyrimidine-5-carboxylic acid 2-(1,3-dimethyl-1H-thieno[2,3-c]pyrazol-5-yl)-ethyl ester], the IC50 reads like this: under setting [1], 24000 nM; under setting [2], > 20000 nM. The matching figures for `CC1=C(C(=O)OCCc2ccsc2Br)C(CF)NC(=S)N1` (stereo not shown) [Compound 268, 4-fluoromethyl-6-methyl-2-thioxo-1,2,3,4-tetrahydro-pyrimidine-5-carboxylic acid 2-(2-bromo-thiophen-3-yl)-ethyl ester]: 1000 nM and 1000 to 10000 nM. In the same order, the values of `CC1=C(C(=O)OCC=Cc2ccsc2)C(CF)NC(=S)N1` (stereo not shown) [Compound 269, 4-fluoromethyl-6-methyl-2-thioxo-1,2,3,4-tetrahydro-pyrimidine-5-carboxylic acid 3-thiophen-3-yl-allyl ester] are 5000 nM and 1000 to 10000 nM. In the same order, the values of `CC1=C(C(=O)OCCCc2ccco2)C(CF)NC(=S)N1` (stereo not shown) [Compound 270, 4-fluoromethyl-6-methyl-2-thioxo-1,2,3,4-tetrahydro-pyrimidine-5-carboxylic acid 3-furan-2-yl-propyl ester] are 5000 nM and 1000 to 10000 nM.

In the case of `O=C(OCCc1ccsc1)C1=CNC(=S)NC1CF` (stereo not shown) [Compound 271, 4-fluoromethyl-2-thioxo-1,2,3,4-tetrahydro-pyrimidine-5-carboxylic acid 2-thiophen-3-yl-ethyl ester], the IC50 by setting is: under setting [1], 9000 nM; under setting [2], 1000 to 10000 nM. The matching figures for `CC1=C(C(=O)OCCc2ccsc2)C(COCc2ccccc2)NC(=S)N1` (stereo not shown) [Compound 272, 4-benzyloxymethyl-6-methyl-2-thioxo-1,2,3,4-tetrahydro-pyrimidine-5-carboxylic acid 2-thiophen-3-yl-ethyl ester]: 34000 nM and > 20000 nM.

`CCOc1ccccc1CCOC(=O)C1=C(C)NC(=S)NC1` [Compound 273, 6-methyl-2-thioxo-1,2,3,4-tetrahydro-pyrimidine-5-carboxylic acid 2-(2-ethoxy-phenyl)-ethyl ester]: the IC50 is, setting by setting: under setting [1], 800 nM; under setting [2], < 1000 nM.

As for `CCOc1ccccc1CCOC(=O)C1=C(C)NC(=S)NC1CF` (stereo not shown) [Compound 274, 4-fluoromethyl-6-methyl-2-thioxo-1,2,3,4-tetrahydro-pyrimidine-5-carboxylic acid 2-(2-ethoxy-phenyl)-ethyl ester], the concentration for half-maximal inhibition (IC50) is > 100000 nM under setting [1] and > 20000 nM under setting [2].

The term IC50 denotes the point on the concentration scale where inhibition reaches its midpoint.
